# From patent US20230144824A1, “1H-PYRAZOLO[4,3-d]PYRIMIDINE COMPOUNDS AS TOLL-LIKE RECEPTOR 7 (TLR7) AGONISTS” (BRISTOL-MYERS SQUIBB COMPANY, priority 2020, published 2023)
# Legend:
# CD69 = experiment: Induction of CD69 in human whole blood; format: cell-based; conditions: Homo sapiens, 17 h, 100% set to 1 uM of resiquimod, average where assay performed multiple times, read-out: hWB CD69 EC50
# Protocol: The induction of Type I interferon (IFN) MX-1 genes and the B-cell activation marker CD69 are downstream events that occur upon activation of the TLR7 pathway. The following is a human whole blood assay that measures their induction in response to a TLR7 agonist.
# Heparinized human whole blood was harvested from human subjects and treated with test TLR7 agonist compounds at 1 mM. The blood was diluted with RPMI 1640 media and Echo was used to predot 10 nL per well giving a final concentration of 1 uM (10 nL in 10 uL of blood). After mixing on a shaker for 30 sec, the plates were covered and placed in a 37° C. chamber for o/n=17 hrs. Fixing/lysis buffer was prepared (5×->1× in H2O, warm at 37° C.; Cat #BD 558049) and kept the perm buffer (on ice) for later use.
# For surface markers staining (CD69): prepared surface Abs: 0.045 ul hCD14-FITC (ThermoFisher Cat #MHCD1401)+0.6 ul hCD19-ef450 (ThermoFisher Cat #48-0198-42)+1.5 ul hCD69-PE (cat #BD555531)+0.855 ul FACS buffer. Added 3 ul/well, spin1000 rpm for 1 min and mixed on shaker for 30 sec, put on ice for 30 mins. Stop stimulation after 30 minutes with 70 uL of prewarmed 1× fix/lysis buffer and use Feliex mate to resuspend (15 times, change tips for each plate) and incubate at 37 C for 10 minutes.
# Centrifuge at 2000 rpm for 5 minutes aspirate with HCS plate washer, mix on shaker for 30 sec and then wash with 70 uL in dPBS and pelleted 2×s (2000 rpm for 5 min) and 50 ul wash in FACS buffer pelleted 1×s (2000 rpm for 5 min). Mix on shaker for 30 sec. For Intracellular markers staining (MX-1): Add 50 ul of BD Perm buffer III and mix on shaker for 30 sec. Incubate on ice for 30 minutes (in the dark). Wash with 50 uL of FACS buffer 2×(spin @2300 rpm×5 min after perm) followed by mixing on shaker for 30 sec. Resuspended in 20 ul of FACS buffer containing MX1 antibody ( )(4812)-Alexa 647: Novus Biologicals #NBP2-43704AF647) 20 ul FACS bf+0.8 ul hIgG+0.04 ul MX-1. Spin 1000 rpm for 1 min, mix on shaker for 30 se and the samples were incubated at RT in the dark for 45 minutes followed by washing 2×FACS buffer (spin @2300 rpm×5 min after perm). Resuspend 20 ul (35 uL total per well) of FACS buffer and cover with foil and place in 4° C. to read the following day. Plates were read on iQuePlus. The results were loaded into toolset and IC50 curves are generated in curve master. The y-axis 100% is set to 1 uM of resiquimod.
# human TLR7 = target: T1, human TLR7 (Homo sapiens, UniProt Q9NYK1); experiment: Human TLR7 agonist activity assay (HEK-Blue TLR7 SEAP reporter); format: cell-based; conditions: HEK-Blue TLR7 cells, 18 h treatment, average where assay performed multiple times, read-out: hTLR7 Agonism EC50
# T1 construct: host or cells: HEK-Blue TLR7 cells (engineered human embryonic kidney cells)
# T1 sequence (Q9NYK1 27-1049): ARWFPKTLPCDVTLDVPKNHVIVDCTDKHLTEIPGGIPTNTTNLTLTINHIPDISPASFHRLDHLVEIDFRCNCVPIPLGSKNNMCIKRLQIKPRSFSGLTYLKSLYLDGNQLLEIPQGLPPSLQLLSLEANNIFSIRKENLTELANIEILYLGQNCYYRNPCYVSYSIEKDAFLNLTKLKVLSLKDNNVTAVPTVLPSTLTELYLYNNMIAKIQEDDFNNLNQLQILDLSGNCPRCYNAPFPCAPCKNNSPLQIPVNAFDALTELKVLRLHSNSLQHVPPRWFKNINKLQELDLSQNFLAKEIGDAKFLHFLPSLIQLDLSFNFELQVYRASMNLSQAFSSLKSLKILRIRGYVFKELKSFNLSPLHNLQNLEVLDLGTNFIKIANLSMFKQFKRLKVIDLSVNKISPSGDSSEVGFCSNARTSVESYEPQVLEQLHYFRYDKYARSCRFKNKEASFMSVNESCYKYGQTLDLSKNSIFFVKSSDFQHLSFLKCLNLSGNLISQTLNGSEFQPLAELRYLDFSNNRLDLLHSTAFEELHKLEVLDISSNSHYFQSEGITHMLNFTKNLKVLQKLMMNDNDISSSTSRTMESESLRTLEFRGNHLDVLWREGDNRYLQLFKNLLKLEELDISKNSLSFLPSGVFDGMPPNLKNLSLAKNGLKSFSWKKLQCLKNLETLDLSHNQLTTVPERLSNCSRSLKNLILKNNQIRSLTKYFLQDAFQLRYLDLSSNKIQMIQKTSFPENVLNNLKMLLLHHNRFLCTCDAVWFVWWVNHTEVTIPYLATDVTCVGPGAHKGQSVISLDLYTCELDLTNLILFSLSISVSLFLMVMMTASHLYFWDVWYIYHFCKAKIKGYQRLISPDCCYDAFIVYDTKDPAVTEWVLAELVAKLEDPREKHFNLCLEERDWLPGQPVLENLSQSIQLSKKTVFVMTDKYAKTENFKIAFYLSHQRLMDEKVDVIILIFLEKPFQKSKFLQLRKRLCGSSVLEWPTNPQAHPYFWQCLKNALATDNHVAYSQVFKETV
# Protocol: This procedure describes a method for assaying human TLR7 (hTLR7) agonist activity of the compounds disclosed in this specification.
# HEK-Blue™ TLR7 cells were added to each well of a 384-well tissue-culture plate (15,000 cells per well) and incubated 16-18 h at 37° C., 5% CO2. Compounds (100 nl) were dispensed into wells containing the HEK-Blue™ TLR cells and the treated cells were incubated at 37° C., 5% CO2. After 18 h treatment ten microliters of freshly-prepared Quanti-Blue™ reagent (Invivogen) was added to each well, incubated for 30 min (37° C., 5% CO2) and SEAP levels measured using an Envision plate reader (OD=620 nm). The half maximal effective concentration values (EC50; compound concentration which induced a response halfway between the assay baseline and maximum) were calculated.
SMILES,EC50 (CD69),EC50 (human TLR7)
"CCC[C@@H](CCO)Nc1nc(N)nc2cnn(Cc3ncc(C4C[C@@H](C#N)CN4)cc3OC)c12 (mixture of isomers) [Compound 185, (3R)-5-{6-[(5-amino-7-{[(3S)-1-hydroxyhexan-3-yl]amino}-1H-pyrazolo[4,3-d]pyrimidin-1-yl)methyl]-5-methoxypyridin-3-yl}pyrrolidine-3-carbonitrile]",27.8 nM,399 nM
"CCCCNc1nc(N)nc2cnn(Cc3ncc(C4CCNCC4)cc3OC)c12 [Compound 101, N7-butyl-1-{[3-methoxy-5-(piperidin-4-yl)pyridin-2-yl]methyl}-1H-pyrazolo[4,3-d]pyrimidine-5,7-diamine]",9.3 nM,56.6 nM
"CCCCNc1nc(N)nc2cnn(Cc3ncc(C4CCN(S(C)(=O)=O)CC4)cc3OC)c12 [Compound 103, N7-butyl-1-{[5-(1-methanesulfonylpiperidin-4-yl)-3-methoxypyridin-2-yl]methyl}-1H-pyrazolo[4,3-d]pyrimidine-5,7-diamine]",562 nM,204 nM
"CCCCNc1nc(N)nc2cnn(Cc3ncc(C4CCN(C(=O)CCO)CC4)cc3OC)c12 [Compound 105, 1-[4-(6-{[5-amino-7-(butylamino)-1H-pyrazolo[4,3-d]pyrimidin-1-yl]methyl}-5-methoxypyridin-3-yl)piperidin-1-yl]-3-hydroxypropan-1-one]",159 nM,817 nM
"CCCCNc1nc(N)nc2cnn(Cc3ncc(C4CCN(C5CCC5)CC4)cc3OC)c12 [Compound 108, N7-butyl-1-{[5-(1-cyclobutylpiperidin-4-yl)-3-methoxypyridin-2-yl]methyl}-1H-pyrazolo[4,3-d]pyrimidine-5,7-diamine]",4.8 nM,51.9 nM
"CCC[C@@H](CCO)Nc1nc(N)nc2c(C)nn(Cc3ncc(C4CCN(C5CCOCC5)CC4)cc3OC)c12 [Compound 215, (3S)-3-{[5-amino-1-({3-methoxy-5-[1-(oxan-4-yl)piperidin-4-yl]pyridin-2-yl}methyl)-3-methyl-1H-pyrazolo[4,3-d]pyrimidin-7-yl]amino}hexan-1-ol]",–,29.8 nM
"CCC[C@@H](CCO)Nc1nc(N)nc2cnn(Cc3ccc(C4CCN(C5CCOCC5)CC4)nc3)c12 [Compound 216, (3S)-3-{[5-amino-1-({6-[1-(oxan-4-yl)piperidin-4-yl]pyridin-3-yl}methyl)-1H-pyrazolo[4,3-d]pyrimidin-7-yl]amino}hexan-1-ol]",–,1540 nM
"CCCCNc1nc(N)nc2cnn(Cc3ncc(C4CCN(CC5CCOCC5)CC4)cc3OC)c12 [Compound 218, N7-butyl-1-[(3-methoxy-5-{1-[(oxan-4-yl)methyl]piperidin-4-yl}pyridin-2-yl)methyl]-1H-pyrazolo[4,3-d]pyrimidine-5,7-diamine]",–,25.9 nM
"CCCCNc1nc(N)nc2cnn(Cc3cnc(C4CCN(C5CCOCC5)CC4)cc3OC)c12 [Compound 219, N7-butyl-1-({4-methoxy-6-[1-(oxan-4-yl)piperidin-4-yl]pyridin-3-yl}methyl)-1H-pyrazolo[4,3-d]pyrimidine-5,7-diamine]",–,21.9 nM
"CCC[C@@H](CCO)Nc1nc(N)nc2c(C)nn(Cc3cnc(C4CCN(CC#N)CC4)cc3OC)c12 [Compound 220, 2-(4-{5-[(5-amino-7-{[(3S)-1-hydroxyhexan-3-yl]amino}-3-methyl-1H-pyrazolo[4,3-d]pyrimidin-1-yl)methyl]-4-methoxypyridin-2-yl}piperidin-1-yl)acetonitrile]",–,436 nM
"CCC[C@@H](CCO)Nc1nc(N)nc2c(C)nn(Cc3cnc(C4CCNCC4)cc3OC)c12 [Compound 221, (3S)-3-[(5-amino-1-{[4-methoxy-6-(piperidin-4-yl)pyridin-3-yl]methyl}-3-methyl-1H-pyrazolo[4,3-d]pyrimidin-7-yl)amino]hexan-1-ol]",–,57.1 nM

# Continued by falling EC50 (human TLR7), values first:
EC50 (CD69),EC50 (human TLR7),SMILES
150 nM,549 nM,"CCCCNc1nc(N)nc2c(C)nn(Cc3ncc(C4CCNCC4)cc3OC)c12 [Compound 106, N7-butyl-1-{[3-methoxy-5-(piperidin-4-yl)pyridin-2-yl]methyl}-3-methyl-1H-pyrazolo[4,3-d]pyrimidine-5,7-diamine]"
213 nM,445 nM,"CCCCNc1nc(N)nc2cnn(Cc3ncc(C4CCN(C(=O)CCOC)CC4)cc3OC)c12 [Compound 104, 1-[4-(6-{[5-amino-7-(butylamino)-1H-pyrazolo[4,3-d]pyrimidin-1-yl]methyl}-5-methoxypyridin-3-yl)piperidin-1-yl]-3-methoxypropan-1-one]"
444 nM,383 nM,"CCCCNc1nc(N)nc2c(C3CC3)nn(Cc3ncc(C4CCN(C)CC4)cc3OC)c12 [Compound 107, N7-butyl-3-cyclopropyl-1-{[3-methoxy-5-(1-methylpiperidin-4-yl)pyridin-2-yl]methyl}-1H-pyrazolo[4,3-d]pyrimidine-5,7-diamine]"
–,170 nM,"CCC[C@@H](CCO)Nc1nc(N)nc2c(C)nn(Cc3cnc(C4CCN(C5CCOCC5)CC4)cc3OC)c12 [Compound 222, (3S)-3-{[5-amino-1-({4-methoxy-6-[1-(oxan-4-yl)piperidin-4-yl]pyridin-3-yl}methyl)-3-methyl-1H-pyrazolo[4,3-d]pyrimidin-7-yl]amino}hexan-1-ol]"
87.8 nM,120 nM,"CCCCNc1nc(N)nc2cnn(Cc3ncc(C4CCN(C5COC5)CC4)cc3OC)c12 [Compound 102, N7-butyl-1-({3-methoxy-5-[1-(oxetan-3-yl)piperidin-4-yl]pyridin-2-yl}methyl)-1H-pyrazolo[4,3-d]pyrimidine-5,7-diamine]"
2.8 nM,89.9 nM,"CCC[C@@H](CCO)Nc1nc(N)nc2cnn(Cc3ncc(C4CCCCCN4)cc3OC)c12 (mixture of isomers) [Compound 183, (3S)-3-[(5-amino-1-{[5-(azepan-2-yl)-3-methoxypyridin-2-yl]methyl}-1H-pyrazolo[4,3-d]pyrimidin-7-yl)amino]hexan-1-ol]"
–,80.1 nM,"CCCCNc1nc(N)nc2cnn(Cc3ncc(C4CCN(Cc5ncn(C)n5)CC4)cc3OC)c12 [Compound 217, N7-butyl-1-[(3-methoxy-5-{1-[(1-methyl-1H-1,2,4-triazol-3-yl)methyl]piperidin-4-yl}pyridin-2-yl)methyl]-1H-pyrazolo[4,3-d]pyrimidine-5,7-diamine]"
